Source: the supplement of paper PMC10307832

Columns and labels:
Assay in all cases: relative viability (nuclei count vs DMSO), 5 days (fraction); higher = more cells survive
NVP-TAE684 + Linsitinib = compound: COc1cc(N2CCC(N3CCN(C)CC3)CC2)ccc1Nc1ncc(Cl)c(Nc2ccccc2S(=O)(=O)C(C)C)n1 [NVP-TAE684] + C[C@]1(O)C[C@@H](c2nc(-c3ccc4ccc(-c5ccccc5)nc4c3)c3c(N)nccn32)C1 [Linsitinib] (partner 1 µM)
Procedure, shortened: (§1)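 After 5 days of treatment, lung cancer cells in 1536-well plates were fixed and stained in a single step (final 0.05% Triton X-100, 1% formaldehyde, 1 ug/ml Hoechst) and their nuclei counted on 4× images. Treatment had been applied by pin tool the day after seeding as one drug alone or as a fixed anchor-drug dose with five library-drug doses (not always all listed) in √10 steps. Relative viability is the nuclei count of treated wells divided by that of vehicle wells, and values are medians of duplicate plates.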

NVP-TAE684 + Trametinib = compound: COc1cc(N2CCC(N3CCN(C)CC3)CC2)ccc1Nc1ncc(Cl)c(Nc2ccccc2S(=O)(=O)C(C)C)n1 [NVP-TAE684] + CC(=O)Nc1cccc(-n2c(=O)n(C3CC3)c(=O)c3c(Nc4ccc(I)cc4F)n(C)c(=O)c(C)c32)c1 [Trametinib] (partner 0.02 µM)
Procedure, shortened: as §1

CUDC-101 + Lapatinib = compound: C#Cc1cccc(Nc2ncnc3cc(OC)c(OCCCCCCC(=O)NO)cc23)c1 [CUDC-101] + CS(=O)(=O)CCNCc1ccc(-c2ccc3ncnc(Nc4ccc(OCc5cccc(F)c5)c(Cl)c4)c3c2)o1 [Lapatinib] (partner 2 µM)
Procedure, shortened: as §1

[1] = compound: C1=CC=C2C(=C1)N=C(S2)C(C#N)C3=NC(=NC=C3)NCCC4=CN=CC=C4 + COc1cc2c(Oc3ccc(NC(=O)C4(C(=O)Nc5ccc(F)cc5)CC4)cc3F)ccnc2cc1OCCCN1CCOCC1 [Foretinib] (partner 0.25 µM)
Procedure, shortened: as §1

| Cell Line | relative viability (NVP-TAE684 + Linsitinib; first compound 0.2 µM) | relative viability (NVP-TAE684 + Linsitinib; first compound 2 µM) | relative viability (NVP-TAE684 + Trametinib; first compound 0.2 µM) | relative viability (NVP-TAE684 + Trametinib; first compound 0.6325 µM) | relative viability (NVP-TAE684 + Trametinib; first compound 2 µM) | relative viability (CUDC-101 + Lapatinib; first compound 0.01 µM) | relative viability (CUDC-101 + Lapatinib; first compound 0.03162 µM) | relative viability (CUDC-101 + Lapatinib; first compound 0.1 µM) | relative viability (CUDC-101 + Lapatinib; first compound 0.3162 µM) | relative viability (CUDC-101 + Lapatinib; first compound 1 µM) | relative viability ([1]; first compound 0.005 µM) | relative viability ([1]; first compound 0.05 µM) | relative viability ([1]; first compound 0.1581 µM) | relative viability ([1]; first compound 0.5 µM) | relative viability (NVP-TAE684 + Linsitinib; first compound 0.6325 µM) | relative viability ([1]; first compound 0.01581 µM) |
| --- | --- | --- | --- | --- | --- | --- | --- | --- | --- | --- | --- | --- | --- | --- | --- | --- |
| 201T | 1.1 | 0.925 | 0.712 | 0.716 | 0.629 | 1.03 | 1.02 | 0.943 | 1.08 | 0.872 | 1.19 | 1.01 | 1.08 | 0.625 |  |  |
| A549 | 0.539 | 0.532 |  |  |  | 0.975 | 1.01 | 0.946 | 0.821 | 0.386 |  | 0.971 | 1.05 | 0.728 | 0.603 | 1.03 |
| A-427 | 1.22 | 1.07 | 0.699 | 0.627 | 0.462 | 0.933 | 1.04 | 1 | 0.914 | 1.01 | 1.22 | 0.946 | 1.22 | 1.32 |  | 1.21 |
| ABC-1 | 0.825 | 0.358 |  |  |  | 1.06 | 1.05 | 1.21 |  | 1.26 | 1.2 | 0.935 | 1.12 | 1 | 0.742 | 1.01 |
| BEN | 0.804 | 0.848 | 0.983 | 0.912 |  | 0.925 | 0.628 | 0.707 | 0.739 | 0.539 | 0.658 | 0.684 | 0.847 | 0.858 | 0.904 | 0.557 |
| CAL-12T | 0.726 | 0.541 | 0.283 | 0.251 | 0.127 | 0.796 | 0.603 | 0.763 | 0.64 | 0.567 | 1.06 | 0.931 | 1.27 | 0.967 | 0.767 | 1.11 |
| COR-L23 | 0.871 | 0.419 | 0.547 | 0.484 | 0.222 | 1.02 | 1.02 | 0.889 | 1.1 | 0.449 | 0.861 | 0.961 | 1.29 | 0.798 | 0.937 | 1.03 |
| Calu-6 | 0.805 | 0.634 |  |  |  | 1.08 | 1.12 | 1.09 | 0.791 | 0.658 | 0.875 | 0.817 | 0.884 | 0.822 | 0.935 | 0.873 |
| ChaGo-K-1 |  |  | 0.899 | 0.843 | 0.58 |  |  |  |  |  |  | 0.838 | 1.06 | 0.932 |  | 0.954 |
| EBC-1 | 0.784 | 0.745 |  |  |  | 0.224 | 0.212 | 0.214 | 0.215 | 0.196 | 0.123 | 0.0991 | 0.112 | 0.0984 | 0.785 | 0.103 |
| HCC-44 | 0.785 | 0.482 | 0.982 | 1.08 | 0.926 | 0.923 | 1.07 | 0.947 | 0.979 | 0.812 |  |  |  |  | 0.674 |  |
| IA-LM | 0.386 | 0.627 |  |  |  | 0.999 | 0.666 | 0.605 | 0.653 | 0.305 | 0.691 | 1.17 | 1.24 | 0.916 | 0.503 | 1.21 |
| LCLC-103H | 1.06 | 1.15 | 0.692 | 0.693 | 0.603 |  |  |  |  |  | 0.801 | 0.894 | 0.828 | 0.737 | 1.23 | 0.8 |
| NCI-H441 | 0.521 | 0.472 | 0.359 | 0.333 | 0.263 |  |  |  |  |  |  | 0.913 | 1.1 | 0.908 | 0.627 | 0.902 |
| NCI-H522 |  |  | 0.652 | 0.776 | 0.738 |  |  |  |  |  |  |  |  |  |  |  |
| NCI-H1299 | 0.915 | 0.909 |  |  |  | 0.97 | 0.917 | 0.883 | 0.973 | 0.857 | 1.1 | 1.05 | 1.09 | 1.09 | 1.02 | 1.1 |
| NCI-H1563 | 1.07 |  |  |  |  | 0.846 | 0.814 | 1.17 | 1.13 | 0.877 | 0.85 | 1.03 | 0.952 | 0.914 | 1.25 | 0.922 |
| NCI-H1623 |  |  |  |  |  |  |  |  |  |  | 0.9 | 0.769 | 0.888 | 0.819 |  | 0.858 |
| NCI-H1648 |  |  | 0.395 | 0.433 | 0.284 |  |  |  |  |  |  |  |  |  |  |  |
| NCI-H1650 |  |  | 0.522 | 0.507 | 0.221 | 0.833 | 0.72 | 0.963 | 0.772 | 0.48 | 1.02 | 0.919 | 1.55 | 0.787 |  | 1.38 |
| NCI-H1703 | 0.862 | 0.588 |  |  |  | 1.31 | 1.03 | 1.07 | 1.18 | 0.765 | 0.391 | 0.381 | 0.318 | 0.336 | 0.932 | 0.37 |
| NCI-H1792 | 0.451 | 0.504 | 0.413 | 0.388 | 0.271 | 0.91 | 0.883 | 0.877 | 0.913 | 0.825 |  |  |  |  | 0.509 |  |
| NCI-H2170 |  |  | 0.861 | 0.947 | 0.916 | 0.27 | 0.266 | 0.297 | 0.227 | 0.232 | 0.731 | 0.961 | 1.04 | 0.861 |  | 1.03 |
| NCI-H2342 |  |  | 0.77 | 0.935 | 0.638 |  |  |  |  |  | 0.926 | 0.997 | 1.04 | 1.17 |  | 1.17 |
| SW 900 |  |  | 0.743 | 0.51 | 0.594 |  |  |  |  |  | 0.63 | 0.704 | 1.02 | 0.985 |  | 0.714 |
